According to ChEMBL document CHEMBL3727345, “New compounds” (2012):

Molecular target: fructose-2,6-bisphosphatase 3/4 (Homo sapiens) (UniProt Q16875+Q16877)
Assay: Inhibition of PFKFB3/PFKFB4 in human Panc1 cells assessed as fructose -2,6-bisphosphate production at 12.5 uM preincubated for 1 hr followed by addition of D-glucose measured after 2 hrs by spectrophotometry
Type: cell-based
Conditions: PANC-1

fructose-2,6-bisphosphatase 3/4 (Homo sapiens), sequence (Q16875 whole entry, looked up): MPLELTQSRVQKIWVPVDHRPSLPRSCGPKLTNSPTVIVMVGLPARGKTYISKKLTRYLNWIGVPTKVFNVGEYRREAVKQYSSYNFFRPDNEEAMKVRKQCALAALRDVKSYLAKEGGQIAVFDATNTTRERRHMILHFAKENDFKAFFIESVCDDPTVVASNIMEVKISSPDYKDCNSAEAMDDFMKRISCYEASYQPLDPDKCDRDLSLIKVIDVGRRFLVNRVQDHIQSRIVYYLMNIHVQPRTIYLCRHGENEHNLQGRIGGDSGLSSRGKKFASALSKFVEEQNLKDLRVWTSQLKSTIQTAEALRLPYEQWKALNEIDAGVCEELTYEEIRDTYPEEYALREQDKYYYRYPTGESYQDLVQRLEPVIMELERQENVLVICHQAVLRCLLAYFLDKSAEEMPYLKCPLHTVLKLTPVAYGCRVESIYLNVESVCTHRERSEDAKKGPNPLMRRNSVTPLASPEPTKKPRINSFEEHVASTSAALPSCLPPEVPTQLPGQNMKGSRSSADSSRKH
fructose-2,6-bisphosphatase 3/4 (Homo sapiens), sequence (Q16877 whole entry, looked up): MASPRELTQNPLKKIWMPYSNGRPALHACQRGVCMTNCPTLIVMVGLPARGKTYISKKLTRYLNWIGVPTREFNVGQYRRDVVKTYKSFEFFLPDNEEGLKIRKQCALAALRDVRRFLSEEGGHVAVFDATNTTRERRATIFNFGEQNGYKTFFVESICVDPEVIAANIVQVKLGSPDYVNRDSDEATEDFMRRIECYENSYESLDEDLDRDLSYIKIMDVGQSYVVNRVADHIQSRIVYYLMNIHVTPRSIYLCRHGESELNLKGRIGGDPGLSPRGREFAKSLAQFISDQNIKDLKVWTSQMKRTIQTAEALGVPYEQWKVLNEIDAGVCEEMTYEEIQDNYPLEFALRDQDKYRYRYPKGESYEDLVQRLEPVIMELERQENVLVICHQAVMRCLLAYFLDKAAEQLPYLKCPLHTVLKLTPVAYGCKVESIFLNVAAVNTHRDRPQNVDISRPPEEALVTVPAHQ

inhibition, > 50%:
CCCCCOC(=O)c1cccc(NS(=O)(=O)c2sc3ccc(Cl)cc3c2C)c1, CCOC(=O)c1cccc(NS(=O)(=O)c2sc3ccc(Cl)cc3c2C)c1, Cc1c(S(=O)(=O)Nc2cccc(C(=O)OCc3ccccc3)c2)sc2ccc(Cl)cc12, COC(=O)c1cccc(NS(=O)(=O)c2oc3ccc(C(C)C)cc3c2C)c1, Cc1c(S(=O)(=O)Nc2cccc(C(=O)OCCn3cccc3)c2)sc2ccc(Cl)cc12, Cc1c(S(=O)(=O)Nc2cccc(C(=O)OCC3CCOC3)c2)sc2ccc(Cl)cc12 (stereo not given), Cc1c(S(=O)(=O)Nc2cccc(C(=O)Oc3ccccc3)c2)sc2ccc(Cl)cc12, COCCOC(=O)c1cccc(NS(=O)(=O)c2sc3ccc(Cl)cc3c2C)c1, CCOC(=O)c1sc(NS(=O)(=O)c2sc3ccc(Cl)cc3c2C)nc1C, CCOC(=O)c1sc(NS(=O)(=O)c2cc(-c3cc(F)ccc3F)c(Cl)s2)nc1C
